This passage reports IC50 results from patent US7105679B2, “Heteroatom containing tetracyclic derivatives as selective estrogen receptor modulators” (priority 2001, dated 2006).

pIC50: −log10 of the molar value. Where “and” joins values, the source holds several entries; their conditions need not be identical. Equal entries are not always repeated. Where two headings read alike, the source gives them in different places.

Assay [1] has as its target T1, human estrogen receptor α (Homo sapiens, UniProt P03372).
T1 construct: purchased Panvera
T1 sequence (P03372 1-595): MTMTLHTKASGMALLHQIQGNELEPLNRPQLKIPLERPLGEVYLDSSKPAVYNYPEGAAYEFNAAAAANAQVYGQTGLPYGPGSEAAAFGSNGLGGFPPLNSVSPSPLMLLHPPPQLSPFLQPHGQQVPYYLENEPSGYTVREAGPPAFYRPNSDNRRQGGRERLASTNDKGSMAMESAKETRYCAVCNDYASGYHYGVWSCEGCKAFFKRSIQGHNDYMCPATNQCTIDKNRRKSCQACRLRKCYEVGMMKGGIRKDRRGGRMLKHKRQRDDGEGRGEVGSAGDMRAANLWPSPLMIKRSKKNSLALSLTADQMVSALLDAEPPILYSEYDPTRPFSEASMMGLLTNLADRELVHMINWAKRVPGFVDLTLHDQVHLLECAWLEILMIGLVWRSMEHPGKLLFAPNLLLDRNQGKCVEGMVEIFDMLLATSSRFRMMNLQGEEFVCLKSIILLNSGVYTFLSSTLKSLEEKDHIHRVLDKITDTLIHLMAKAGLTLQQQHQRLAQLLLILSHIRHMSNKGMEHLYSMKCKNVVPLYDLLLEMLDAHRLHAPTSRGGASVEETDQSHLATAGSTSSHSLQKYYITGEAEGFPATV
As to the kind of experiment: Estrogen Receptor α Flash Plate Assay (binding of radiolabeled estrogen). The note with it: for IC50: flash plate binding, 0.5 nM radiolabeled estrogen, number in brackets = No. of determinations, NA = no detected activity at test concentration, read-out: Estrogen Receptor α in μM (No.). The protocol: This assay monitors binding of radiolabeled estrogen to the estrogen receptor. It is performed on a BioMek 2000 (Beckman). Plates are read in a scintillation counter (Packard TopCount), with decreased counts an indication of binding of a compound to the receptor.
The plate was sealed and incubated at 4° C. overnight.
On day two, each well was washed three times with 200 μL PBS, pH 7.2, at room temperature. To each well was then added 98 μL radiolabeled estrogen (0.5 nM, which equals 6 nCi for a 120 Ci/mmol batch, Amersham), diluted in ESB and 5 mM dithiothreitol (DTT). To individual wells were then added 2.5 μL test compound diluted in 30% (v/v) dimethyl sulfoxide/50 mM HEPES, pH 7.5. The wells were mixed three times by aspiration, the plate sealed and incubated at room temperature for one hour. The wells were then counted for 1 min in a TopCount scintillation counter (Packard).

The subject of assay [2] is MCF-7 cells. The assay is described as follows: MCF-7 Cell Proliferation Assay (14C-thymidine, agonist and antagonist mode). The settings on record: number in brackets = number of tests, NA = no detected activity at test concentration. It counts as cell-based. As for the experimental part: This assay was run according to the procedure described by Welshons, et al., (Breast Cancer Res. Treat., 1987, 10(2), 169-75), with minor modification.
Briefly, MCF-7 cells (from Dr. C. Jordan, Northwestern University) were maintained in RPMI 1640 phenol red free medium (Gibco) in 10% FBS (Hyclone), supplemented with bovine insulin and non-essential amino acid (Sigma). The cells were initially treated with 4-hydoxyltamoxifen (10^−8 M) and let stand at 37° C. for 24 hours. Following this incubation with tamoxifen, the cells were treated with compounds at various concentrations.
Compounds to be tested in the agonist mode were added to the culture media at varying concentrations. Compounds to be treated in the antagonist mode were prepared similarly, and 10 nM 17β-estradiol was also added to the culture media. The cells were incubated for 24 hours at 37° C. Following this incubation, 0.1 μCi of ^14C-thymidine (56 mCi/mmol, Amersham) was added to the culture media and the cells were incubated for an additional 24 hours at 37° C. The cells were then washed twice with Hank's buffered salt solution (HBSS) (Gibco) and counted with a scintillation counter. The increase in the ^14C-thymidine in the compound treated cells relative to the vehicle control cells were reported as percent increase in cell proliferation.

In assay [3] the test system is Ishikawa cells. As to the kind of experiment: Alkaline Phosphatase Assay in Human Endometrial Ishikawa Cells (agonist and antagonist mode). It counts as cell-based. The note with it: antagonist mode with 10 nM 17β-estradiol, number in brackets = number of tests, NA = no detected activity at test concentration. As for the experimental part:
This assay was run according to the procedure described by Albert et a., Cancer Res, […], 50(11), 330-6-10, with minor modification.
Ishikawa cells (from ATCC) were maintained in DMEM/F12 (1:1) phenol red free medium (Gibco) supplemented with 10% calf serum (Hyclone). 24 hours prior to testing, the medium was changed to DMEM/F12 (1:1) phenol red free containing 2% calf serum.
Compounds to be tested in the agonist mode were added to the culture media at varying concentrations. Compounds to be treated in the antagonist mode were prepared similarly, and 10 nM 17β-estradiol was also added to the culture media. The cells were then incubated at 37° C. for 3 days. On the fourth day, the media was remove, 1 volume of 1× Dilution Buffer (Clontech) was added to the well followed by addition of 1 volume of Assay Buffer (Clontech). The cells were then incubated at room temperature for 5 minutes. […] The cells were incubated at room temperature for 10 minutes and then quantified on a luminometer. The increase of chemiluminescence over vehicle control was used to calculate the increase in alkaline phosphatase activity.

Setting [4] is: Homo sapiens, MCF7, antagonist mode with 10 nM 17β-estradiol.
Where [5] appears, read: antagonist mode with 10 nM 17β-estradiol.

In the case of `Oc1ccc2c(c1)OC(c1ccc(OCCN3CCCCC3)cc1)C1=C2CCOc2cc(O)ccc21` (single isomer, unassigned) [Compound 100, 5S*-(−)-[4-(2-Piperidin-1-yl-ethoxy)-phenyl]-11,12-dihydro-5H-6,13-dioxa-benzo[3,4]cyclohepta[1,2-a]naphthalene-2,8-diol], the pIC50 (commonly −log10 of the IC50, conventionally taken in molar units) is 8.59 in assay [1], 7.12 in assay [2] (setting [4]) and 7.72 in assay [3] (Homo sapiens).

`Oc1ccc2c(c1)OC(c1ccc(OCCN3CCCCC3)cc1)C1=C2CCOc2ccccc21` (single isomer, unassigned) [Compound 131]: the IC50 in assay [1] turned out to be 0.061 µM. For the same molecule, the pIC50 in assay [2] (setting [5]) was less than 5.00; in assay [3] it was 5.31.

Turning to `Oc1ccc2c(c1)OC(c1ccc(OCCN3CCCCC3)cc1)C1=C2CCOc2ccccc21` (single isomer, unassigned) [Compound 132], in assay [1], the IC50 turned out to be 0.0048 µM. For the same molecule, the pIC50 is 5.89 in assay [2] (setting [5]) and 6.26 in assay [3].

Consider `CN(C)CCOc1ccc(C2Oc3cc(O)ccc3C3=C2c2ccccc2OCC3)cc1` (single isomer, unassigned) [Compound 147], for which, in assay [1], the IC50 is 0.18 µM. The pIC50 in assay [2] (setting [5]) and in assay [3] was less than 5.00 each time.

As for `CN(C)CCOc1ccc(C2Oc3cc(O)ccc3C3=C2c2ccccc2OCC3)cc1` (single isomer, unassigned) [Compound 149], in assay [1], the IC50 stood at 0.015 µM. The values for the pIC50 in assay [2] (setting [5]) and in assay [3] were 5.87 and 5.99, respectively.

Turning to `Oc1ccc2c(c1)OCCC1=C2C(c2ccc(OCCN3CCCCCC3)cc2)Oc2ccccc21` (single isomer, unassigned) [Compound 152], the IC50 in assay [1] came out at 0.0086 µM. Moreover, the pIC50 in assay [2] (setting [5]) is 5.58; in assay [3], 6.49.

As to `Oc1ccc2c(c1)OCCC1=C2C(c2ccc(OCCN3CCCCCC3)cc2)Oc2ccccc21` (single isomer, unassigned) [Compound 153], the IC50 in assay [1] was determined as 0.0066 µM. Further, the pIC50 in assay [2] (setting [5]) is 5.89; in assay [3], 6.29.

Take `Oc1ccc2c(c1)OC(c1ccc(OCCN3CCCCCC3)cc1)C1=C2CCOc2ccccc21` (single isomer, unassigned) [Compound 154]: the IC50 in assay [1] was found to be 0.0042 µM. The negative logarithm of the IC50 (pIC50) in assay [2] (setting [5]) is 5.84; in assay [3] it was 6.78.

`Oc1ccc2c(c1)OC(c1ccc(OCCN3CCCCCC3)cc1)C1=C2CCOc2ccccc21` (single isomer, unassigned) [Compound 155]: the IC50 in assay [1] was 0.088 µM. Also, the pIC50 is less than 5.00 in assay [2] (setting [5]) and 5.42 in assay [3].

`CC(C)N(CCOc1ccc(C2Oc3cc(O)ccc3C3=C2c2ccc(O)cc2OCC3)cc1)C(C)C` (single isomer, unassigned) [Compound 167]: the IC50 in assay [1] is 0.007 µM. The pIC50 in assay [2] (setting [5]) is 6.37; in assay [3] it was 7.46.

Take `CC(C)N(CCOc1ccc(C2Oc3cc(O)ccc3C3=C2c2ccc(O)cc2OCC3)cc1)C(C)C` (single isomer, unassigned) [Compound 168]: the IC50 in assay [1] is 0.0042 µM. The pIC50 is 6.66 in assay [2] (setting [5]) and 6.54 in assay [3].

Turning to `c1ccc2c(c1)OC(c1ccc(OCCN3CCCCC3)cc1)C1=C2COc2ccccc21` (single isomer, unassigned) [Compound 170, 5R*-(−)-1-{2-[4-(5,11-Dihydro-chromeno[4,3-c]chromen-5-yl)-phenoxy]-ethyl}-piperidine], the IC50 in assay [1] turned out to be 0.16 µM. The negative logarithm of the IC50 (pIC50) is not above 5.00 in assay [2] (setting [5]) and 5.57 in assay [3].

For the molecule `CC(C)(C)C(=O)Oc1ccc2c(c1)OCC1=C2C(c2ccc(OCCN3CCCCC3)cc2)Oc2ccccc21` (single isomer, unassigned) [Compound 171, 2,2-Dimethyl-propionic acid 5S*-(+)-[4-(2-piperidin-1-yl-ethoxy)-phenyl]-5,11-dihydro-chromeno[4,3-c]chromen-2-yl ester], the IC50 in assay [1] turned out to be 0.14 µM. The figures for the pIC50 in assay [2] (setting [5]) and in assay [3] (Homo sapiens) were 5.29 and 7.25, respectively.

`CC(C)(C)C(=O)Oc1ccc2c(c1)OCC1=C2C(c2ccc(OCCN3CCCCC3)cc2)Oc2ccccc21` (single isomer, unassigned) [Compound 172, 2,2-Dimethyl-propionic acid 5R*-(−)-[4-(2-piperidin-1-yl-ethoxy)-phenyl]-5,11-dihydro-chromeno[4,3-c]chromen-2-yl ester]: the IC50 in assay [1] stood at 0.26 µM. The pIC50 in assay [2] (setting [5]) was 5.64; in assay [3] it was 7.16.

Take `COc1ccc2c(c1)O[C@@H](c1ccc(OCCN3CCCCC3)cc1)C1=C2COc2cc(OC)ccc21` (single isomer, unassigned) [Compound 173, 5S*-(+)-1-{2-[4-(2,8-Dimethoxy-5,11-dihydro-chromeno[4,3-c]chromen-5-yl)-phenoxy]-ethyl}-piperidine]: the IC50 in assay [1] worked out at 0.17 µM. In addition, the pIC50 in assay [2] (setting [4]) and in assay [3] (Homo sapiens) was less than 5.00 in each case.

For `COc1ccc2c(c1)OCC1=C2C(c2ccc(OCCN3CCCCC3)cc2)Oc2cc(OC(=O)C(C)(C)C)ccc21` (single isomer, unassigned) [Compound 175], in assay [1], the IC50 is 0.66 µM. In addition, the pIC50 in assay [2] (setting [4]) is 5.30; in assay [3] (Homo sapiens) it was 6.52.

In the case of `Oc1ccc2c(c1)OCCC1=C2C(c2ccc(OCCN3CCCCCC3)cc2)Oc2cc(F)ccc21` (single isomer, unassigned) [Compound 177], the IC50 in assay [1] came out at 0.04 µM. Further, the pIC50 in assay [2] (setting [5]) is 5.52; in assay [3] it was 6.59.

For the molecule `Oc1ccc2c(c1)OCCC1=C2C(c2ccc(OCCN3CCCCCC3)cc2)Oc2cc(F)ccc21` (single isomer, unassigned) [Compound 178], the IC50 in assay [1] was 0.0064 µM and 0.0076 µM. In addition, the pIC50 in assay [2] (setting [5]) was 5.83; in assay [3], 6.90.

With `COc1ccc2c(c1)OCC1=C2[C@H](c2ccc(OCCN3CCCCC3)cc2)Oc2cc(O)ccc21` (single isomer, unassigned) [Compound 181, 8-Methoxy-11S*(−)-[4-(2-piperidin-1-yl-ethoxy)-phenyl]-5,11-dihydro-chromeno[4,3-c]chromen-2-ol], the IC50 in assay [1] was determined as 0.0011 µM. In addition, the pIC50 in assay [2] (setting [4]) was 5.87; in assay [3] (Homo sapiens), 7.47.

For `COc1ccc2c(c1)OCCC1=C2C(c2ccc(OCCN3CCCCC3)cc2)Oc2cc(O)ccc21` (single isomer, unassigned) [Compound 196, 2-Methoxy-5S*-(−)-[4-(2-piperidin-1-yl-ethoxy)-phenyl]-11,12-dihydro-5H-6,13-dioxa-benzo[3,4]cyclohepta[1,2-a]naphthalen-8-ol], the IC50 in assay [1] was 0.055 µM. Besides, the pIC50 in assay [2] (setting [5]) was less than 6.00; in assay [3], 6.64.
